In article PMC3793267 (Biomarkers, 2008):

Assays:
[1] = target: T1, rat plasma albumin (Rattus norvegicus, UniProt P02770); test: biochemical; type: binding
[2] = test system: rats; test: Clinical signs in rats after oral dosing
[3] = target: erythrocyte AChE (Rattus norvegicus, UniProt P37136); test: Erythrocyte AChE inhibition after oral dosing of rats; type: in vivo, F344 rats
[4] = target: T1, rat plasma albumin; test: Plasma albumin binding by pesticide in vivo after oral dosing of rats; design: species or system F344 rats; conditions: for inhibition of binding of the ^3H-DFP-radiolabelled albumin molecules in vivo: 25% of LD50, plasma 1 day after dosing
[5] = test system: Erythrocyte AChE; conditions: steady (linear) recovery; ref Mason [2000]; cited from earlier work

T1 sequence (P02770 25-608): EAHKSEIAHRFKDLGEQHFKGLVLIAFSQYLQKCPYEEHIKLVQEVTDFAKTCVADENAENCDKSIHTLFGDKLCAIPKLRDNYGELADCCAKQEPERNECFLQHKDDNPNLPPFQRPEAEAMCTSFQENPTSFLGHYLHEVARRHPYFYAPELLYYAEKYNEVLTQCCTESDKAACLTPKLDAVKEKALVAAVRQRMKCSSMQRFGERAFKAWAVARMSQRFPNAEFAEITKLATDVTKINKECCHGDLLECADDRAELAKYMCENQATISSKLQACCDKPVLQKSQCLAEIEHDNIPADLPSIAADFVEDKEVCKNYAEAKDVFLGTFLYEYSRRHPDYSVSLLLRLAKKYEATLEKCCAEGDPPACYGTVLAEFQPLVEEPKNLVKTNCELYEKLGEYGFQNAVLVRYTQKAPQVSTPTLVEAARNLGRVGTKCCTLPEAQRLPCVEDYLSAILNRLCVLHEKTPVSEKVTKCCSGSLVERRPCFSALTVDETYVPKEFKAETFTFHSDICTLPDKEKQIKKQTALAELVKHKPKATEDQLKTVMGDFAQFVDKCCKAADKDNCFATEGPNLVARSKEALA

## COP(=O)(OC)SCn1c(=O)oc2cc(Cl)cnc21 [Azamethiphos (oxon), S-6-chloro-2,3-dihydro-2-oxo-1,3-oxazolo[4,5-b]pyridin-3-ylmethyl O,O-dimethyl phosphorothioate]
[1]
  rat plasma albumin binding (^3H-DFP radiolabelling) reduced from controls: 9±1%

## CCOP(=O)(OCC)OC(=CCl)c1ccc(Cl)cc1Cl [Chlorfenvinphos (oxon), 2-chloro-1-(2,4-dichlorophenyl)vinyl diethyl phosphate]
[2]; 12.5% of LD50 (1.25 mg kg^−1)
  clinical signs: not the lower dose
[2]; 80% of LD50 (8.0 mg kg^−1)
  clinical signs: salivation and muscle fasciculation in all rats
[3]; rat, po, read-out: erythrocyte AChE inhibition
  inhibition at 1.25 mg/kg: 22%
[4]
  inhibition of binding of the ^3H-DFP-radiolabelled albumin molecules in vivo: approximately 50%
[4]; each of the doses 12.5%, 25% and 80% of LD50, 24 h after dosing
  ^3H-DFP radiolabelled albumin molecules bound in vivo: approximately 50%
[1]
  IC50: ~400 nM
  ^3H-DFP incorporation into rat plasma albumin versus controls (significance): significantly different from controls
  rat plasma albumin binding (^3H-DFP radiolabelling) reduced from controls: 67±2%

## CCOC(=O)CC(SP(=O)(OC)OC)C(=O)OCC (stereo not shown) [Malaoxon]
[1]
  rat plasma albumin binding (^3H-DFP radiolabelling) reduced from controls: 8±1%

## CCOC(=O)CC(SP(=S)(OC)OC)C(=O)OCC (stereo not shown) [Malathion, diethyl (dimethoxyphosphinothioylthio)succinate]
[3]; rats, oral, (approximately) 25% of LD50, Day 1 (24 h) after dosing
  erythrocyte AChE inhibition: 57%

## CCN(CC)c1nc(C)cc(OP(=S)(OC)OC)n1 [Pirimiphos-methyl, O-2-diethylamino-6-methylpyrimidin-4-yl O,O-dimethyl phosphorothioate]
[4]
  inhibition of binding of the ^3H-DFP-radiolabelled albumin molecules in vivo: approximately 50%

## COP(=O)(OC)OC=C(Cl)Cl [dichlorvos]
[5]
  time for erythrocyte AChE to return to control levels: approximately 82 days
